Data on five molecules can be found in US8778621B2, “Phosphodiesterase 4D7 as marker for malignant, hormone-sensitive prostate cancer” (Koninklijke Philips N.V., priority 2009, dated 2014).

The structures appear in SMILES notation. Read-outs that look alike come from different tables or passages of the source. A value given as a limit tells only on which side of the number the result lay.

For series [1], the system named is human lung PDE4. The settings on record: cited from earlier work.
The subject of series [2] is lung PDE1. The settings on record: cited from earlier work.
Series [3] concerns isolated human peripheral blood monocytes, eosinophils and T cells. The settings on record: cited from earlier work.
In series [4] the target is cAMP phosphodiesterase (PDE4). The settings on record: cited from earlier work.
The test system of series [5] is heart PDE3. The settings on record: cited from earlier work.
The conditions of series [6]: in vivo; cited from earlier work.
Series [7] concerns the target T1, platelet PDE-V (Homo sapiens, UniProt O76074).
T1 construct: from tissue; host or cells: platelets
The settings on record: cited from earlier work.

The target in series [8] is T2, lung PDE2.
T2 construct: from tissue; host or cells: lung
To be noted: cited from earlier work.

Series [9] concerns the target [3H]-rolipram binding to rat brain. To be noted: read-out: IC50 for inhibition of [3H]-rolipram binding to rat brain; cited from earlier work.
Series [10] has as its target PDEVIIB (Homo sapiens, UniProt Q9NP56). To be noted: cited from earlier work.
In series [11] the target is PDEVA (Homo sapiens, UniProt O76074). To be noted: cited from earlier work.
For series [12], the target named is PDEIIA (Homo sapiens, UniProt O00408). The settings on record: cited from earlier work.
Series [13] has as its target PDEIIIB (Homo sapiens, UniProt Q13370). To be noted: cited from earlier work.
The target of series [14] is PDEIXA (Homo sapiens, UniProt O76083). The settings on record: cited from earlier work.
Chain of PDEIXA (O76083 whole entry): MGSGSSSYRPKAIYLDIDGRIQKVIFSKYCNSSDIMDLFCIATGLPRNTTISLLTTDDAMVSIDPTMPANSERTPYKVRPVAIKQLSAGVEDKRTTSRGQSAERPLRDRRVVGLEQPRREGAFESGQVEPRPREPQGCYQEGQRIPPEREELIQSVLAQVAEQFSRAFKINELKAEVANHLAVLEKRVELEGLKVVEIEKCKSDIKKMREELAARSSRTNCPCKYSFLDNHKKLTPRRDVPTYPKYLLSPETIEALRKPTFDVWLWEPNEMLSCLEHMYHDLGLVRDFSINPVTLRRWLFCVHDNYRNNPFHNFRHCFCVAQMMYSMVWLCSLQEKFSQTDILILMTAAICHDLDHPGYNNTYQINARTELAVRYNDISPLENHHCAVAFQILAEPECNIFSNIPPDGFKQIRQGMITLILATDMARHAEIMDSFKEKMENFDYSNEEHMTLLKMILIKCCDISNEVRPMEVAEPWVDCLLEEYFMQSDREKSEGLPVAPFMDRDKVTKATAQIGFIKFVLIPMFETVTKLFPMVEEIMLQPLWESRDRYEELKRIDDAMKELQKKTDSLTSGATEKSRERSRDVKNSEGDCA
Series [15] deals with PDEXA (Homo sapiens, UniProt Q9Y233). The settings on record: cited from earlier work.
Chain of PDEXA (Q9Y233 whole entry): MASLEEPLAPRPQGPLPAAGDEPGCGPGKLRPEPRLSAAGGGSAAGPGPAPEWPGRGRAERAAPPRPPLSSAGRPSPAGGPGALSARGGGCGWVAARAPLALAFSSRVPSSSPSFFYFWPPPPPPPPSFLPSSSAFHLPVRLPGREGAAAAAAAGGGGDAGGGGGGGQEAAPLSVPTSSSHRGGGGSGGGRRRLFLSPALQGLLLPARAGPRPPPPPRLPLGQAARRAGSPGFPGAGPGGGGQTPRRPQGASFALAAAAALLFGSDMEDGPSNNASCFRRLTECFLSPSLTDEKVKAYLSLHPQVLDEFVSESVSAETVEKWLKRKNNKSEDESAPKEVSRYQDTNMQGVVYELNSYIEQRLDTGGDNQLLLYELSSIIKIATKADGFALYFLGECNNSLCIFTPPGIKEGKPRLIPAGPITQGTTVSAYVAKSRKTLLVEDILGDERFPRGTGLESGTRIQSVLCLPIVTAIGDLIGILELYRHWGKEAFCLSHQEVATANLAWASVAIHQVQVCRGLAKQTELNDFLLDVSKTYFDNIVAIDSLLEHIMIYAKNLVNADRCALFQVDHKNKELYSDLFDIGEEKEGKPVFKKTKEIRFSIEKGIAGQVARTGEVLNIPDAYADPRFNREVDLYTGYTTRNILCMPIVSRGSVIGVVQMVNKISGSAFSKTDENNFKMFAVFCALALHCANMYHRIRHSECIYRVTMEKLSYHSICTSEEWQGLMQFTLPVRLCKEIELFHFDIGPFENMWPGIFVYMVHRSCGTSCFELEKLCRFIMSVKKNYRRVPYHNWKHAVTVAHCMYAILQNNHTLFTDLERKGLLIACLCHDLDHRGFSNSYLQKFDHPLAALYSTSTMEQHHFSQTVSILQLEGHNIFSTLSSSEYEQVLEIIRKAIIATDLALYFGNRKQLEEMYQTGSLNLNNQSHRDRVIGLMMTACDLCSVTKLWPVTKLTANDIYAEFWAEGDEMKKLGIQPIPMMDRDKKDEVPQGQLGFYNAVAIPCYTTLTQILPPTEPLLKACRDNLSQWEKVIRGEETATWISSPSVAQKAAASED
Series [16] addresses PDEXIA (Homo sapiens, UniProt Q9HCR9). The settings on record: cited from earlier work.
For series [17], the target named is PDEVIIIA (Homo sapiens, UniProt O60658). The settings on record: cited from earlier work.
Chain of PDEVIIIA (O60658 whole entry): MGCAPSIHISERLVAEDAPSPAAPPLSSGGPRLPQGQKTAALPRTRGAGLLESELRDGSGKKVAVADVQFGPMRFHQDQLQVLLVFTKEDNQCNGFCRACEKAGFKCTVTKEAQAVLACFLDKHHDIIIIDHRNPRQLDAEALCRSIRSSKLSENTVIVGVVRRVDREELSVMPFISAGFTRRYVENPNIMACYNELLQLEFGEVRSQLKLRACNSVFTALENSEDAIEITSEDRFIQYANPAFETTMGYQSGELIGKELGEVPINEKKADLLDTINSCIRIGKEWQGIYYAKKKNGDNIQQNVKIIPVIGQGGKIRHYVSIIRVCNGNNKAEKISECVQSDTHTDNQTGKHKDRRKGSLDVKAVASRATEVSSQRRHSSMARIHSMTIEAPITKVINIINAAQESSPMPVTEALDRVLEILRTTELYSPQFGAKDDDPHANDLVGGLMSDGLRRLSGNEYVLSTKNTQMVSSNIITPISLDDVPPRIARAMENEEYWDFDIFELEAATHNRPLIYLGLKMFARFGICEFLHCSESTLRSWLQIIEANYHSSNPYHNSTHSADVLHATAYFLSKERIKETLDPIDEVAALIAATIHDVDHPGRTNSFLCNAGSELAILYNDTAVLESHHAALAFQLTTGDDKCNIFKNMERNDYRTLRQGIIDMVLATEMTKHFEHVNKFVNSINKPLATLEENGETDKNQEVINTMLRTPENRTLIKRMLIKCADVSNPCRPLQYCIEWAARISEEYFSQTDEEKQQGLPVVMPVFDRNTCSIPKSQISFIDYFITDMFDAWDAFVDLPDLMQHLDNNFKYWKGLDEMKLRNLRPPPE
For series [18], the target named is PDEIB (Homo sapiens, UniProt Q01064). The settings on record: cited from earlier work.
Chain of PDEIB (Q01064 whole entry): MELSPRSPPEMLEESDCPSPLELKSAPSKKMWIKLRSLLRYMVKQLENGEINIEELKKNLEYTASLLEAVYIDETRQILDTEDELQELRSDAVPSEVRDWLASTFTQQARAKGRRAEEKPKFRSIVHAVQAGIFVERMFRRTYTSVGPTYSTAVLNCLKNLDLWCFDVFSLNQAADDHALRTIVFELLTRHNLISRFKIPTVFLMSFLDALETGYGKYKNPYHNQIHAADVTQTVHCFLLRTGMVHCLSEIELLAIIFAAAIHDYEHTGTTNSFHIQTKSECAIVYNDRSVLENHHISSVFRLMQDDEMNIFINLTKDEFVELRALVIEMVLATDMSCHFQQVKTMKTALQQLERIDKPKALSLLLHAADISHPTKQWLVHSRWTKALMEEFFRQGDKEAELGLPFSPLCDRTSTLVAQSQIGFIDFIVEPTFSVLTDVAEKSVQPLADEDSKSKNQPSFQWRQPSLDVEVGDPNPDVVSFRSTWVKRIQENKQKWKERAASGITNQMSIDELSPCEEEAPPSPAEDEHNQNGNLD
Series [19] has as its system LNCaP prostate cancer cells. The series is described as follows: MTT growth assay, A590 Abs end-point. It is filed as cell-based. To be noted: Homo sapiens. As for the experimental part:
The growth data is expressed as a percentage of as a percentage of the “untreated” A590 Abs reading after 48 hours. The cells were assayed without the presence of androgens.
For the MTT growth assay LNCaP cells were grown at 37° C., 5% CO2, from a seeding value of 5000 cells. The final plating volume was 200 μl. The proliferation assay was obtained from Promega (Cat no G3582). The growth data were obtained during A590 Abs measurements. Measurements were conducted 48 hours after the initial plating. The cells were assayed without the presence of androgens. The significance of final A590 readings was calculated using T-Test of Triplicate Values only. […] The level of average inhibition of cell proliferation is around 50%, which would lead to an IC50 of the compound of ˜10 μM. […]
In general terms: Tetrazolium dyes change colour on reduction, which living cells bring about.

For series [20], the system named is LNCaP prostate cancer cells. The series is described as follows: Xcelligence assay, real time electrical impedance measurement of cell growth. Format: cell-based. To be noted: Homo sapiens. The procedure:
The growth data is expressed as a percentage of “untreated” slope value obtained during real time electrical impedance measurements. Measurements were conducted 12 hours after the initial plating down phase of the assay, i.e. 12 hours-60 hours—so as to examine proliferative potential and not morphological change. The cells were assayed without the presence of androgens.
For the Xcelligence assay LNCaP cells were grown at 37° C., 5% CO2, from a seeding value of 5000 cells. The final plating volume was 200 μl. E-Plate 96 well plates were obtained from Roche (Cat No 05232368001). The growth data were obtained during real time electrical impedance measurements. Measurements were conducted 12 hours after the initial plating down phase of the assay, i.e. 12 hours-60 hours—so as to examine proliferative potential and not morphological change. The cells were assayed without the presence of androgens. The significance of differential growth rates were calculated using T-Test of Triplicate Values only. […] The level of average inhibition of cell proliferation is around 50%, which would lead to an IC50 of the compound of ˜10 μM. Compared to an in vitro IC50 for 50% inhibition of PDE4 in vitro of ˜2 μm, an in vivo IC50 of 10 μM let us conclude that the proliferation inhibition effect is largely due to its PDE4 activity.

For series [21] the following is noted: in vivo; cited from earlier work. This is another data set of the same source.
The mark [22] stands for this setting: PDE4 inhibitors, target not given, read-out: IC 50 (Table of Inhibitors).

Chain of PDEXIA (Q9HCR9 whole entry): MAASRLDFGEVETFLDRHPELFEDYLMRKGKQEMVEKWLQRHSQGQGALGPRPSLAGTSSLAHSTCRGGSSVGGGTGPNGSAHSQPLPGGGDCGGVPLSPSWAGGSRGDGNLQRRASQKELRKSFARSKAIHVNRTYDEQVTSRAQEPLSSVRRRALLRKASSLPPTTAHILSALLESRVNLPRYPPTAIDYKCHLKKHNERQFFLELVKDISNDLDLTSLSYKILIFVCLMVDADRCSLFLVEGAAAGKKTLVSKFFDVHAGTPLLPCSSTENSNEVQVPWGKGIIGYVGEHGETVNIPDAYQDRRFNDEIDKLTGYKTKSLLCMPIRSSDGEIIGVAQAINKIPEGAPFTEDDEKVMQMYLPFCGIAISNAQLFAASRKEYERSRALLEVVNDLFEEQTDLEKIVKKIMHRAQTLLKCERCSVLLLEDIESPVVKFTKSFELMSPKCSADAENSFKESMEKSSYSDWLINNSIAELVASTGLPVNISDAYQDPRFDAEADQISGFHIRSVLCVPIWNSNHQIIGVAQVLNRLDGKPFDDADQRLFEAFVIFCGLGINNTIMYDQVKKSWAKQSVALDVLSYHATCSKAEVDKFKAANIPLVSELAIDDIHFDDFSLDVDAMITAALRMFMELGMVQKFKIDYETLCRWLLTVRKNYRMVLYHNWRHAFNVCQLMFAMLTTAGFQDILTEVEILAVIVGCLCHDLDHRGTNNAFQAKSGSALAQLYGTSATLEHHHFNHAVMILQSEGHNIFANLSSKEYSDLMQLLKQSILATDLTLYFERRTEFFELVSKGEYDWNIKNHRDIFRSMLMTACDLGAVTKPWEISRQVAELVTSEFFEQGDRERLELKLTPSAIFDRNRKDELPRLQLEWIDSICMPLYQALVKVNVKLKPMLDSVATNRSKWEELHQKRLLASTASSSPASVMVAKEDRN
Chain of PDEIIIB (Q13370 whole entry): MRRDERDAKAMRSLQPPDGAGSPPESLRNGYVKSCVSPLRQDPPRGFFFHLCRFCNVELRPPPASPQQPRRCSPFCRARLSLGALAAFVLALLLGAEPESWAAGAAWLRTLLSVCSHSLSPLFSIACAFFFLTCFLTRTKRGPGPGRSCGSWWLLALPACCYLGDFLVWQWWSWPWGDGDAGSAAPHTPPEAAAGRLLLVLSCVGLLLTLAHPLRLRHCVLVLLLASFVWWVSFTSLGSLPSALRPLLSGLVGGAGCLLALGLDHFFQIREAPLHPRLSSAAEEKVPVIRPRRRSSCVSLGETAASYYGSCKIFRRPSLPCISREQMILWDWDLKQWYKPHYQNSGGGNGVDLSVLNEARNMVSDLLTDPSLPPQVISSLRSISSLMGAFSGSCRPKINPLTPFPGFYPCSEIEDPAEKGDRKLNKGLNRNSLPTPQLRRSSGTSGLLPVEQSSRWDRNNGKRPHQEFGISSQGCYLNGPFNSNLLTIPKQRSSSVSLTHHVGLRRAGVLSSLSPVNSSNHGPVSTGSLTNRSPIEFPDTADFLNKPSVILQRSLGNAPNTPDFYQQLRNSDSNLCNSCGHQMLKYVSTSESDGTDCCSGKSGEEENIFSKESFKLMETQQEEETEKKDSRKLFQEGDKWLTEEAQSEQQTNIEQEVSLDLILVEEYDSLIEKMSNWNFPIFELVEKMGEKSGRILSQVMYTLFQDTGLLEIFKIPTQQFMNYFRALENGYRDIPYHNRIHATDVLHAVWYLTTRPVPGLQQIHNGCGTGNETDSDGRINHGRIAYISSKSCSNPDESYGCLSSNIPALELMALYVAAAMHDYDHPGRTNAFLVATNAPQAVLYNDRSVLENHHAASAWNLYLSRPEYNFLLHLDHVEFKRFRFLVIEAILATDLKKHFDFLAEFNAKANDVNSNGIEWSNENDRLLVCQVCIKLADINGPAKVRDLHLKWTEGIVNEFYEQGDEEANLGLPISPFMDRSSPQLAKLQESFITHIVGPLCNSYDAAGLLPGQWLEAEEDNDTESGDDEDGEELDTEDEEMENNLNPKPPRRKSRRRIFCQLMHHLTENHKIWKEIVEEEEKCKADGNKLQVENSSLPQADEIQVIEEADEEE

As to `COc1ccc(C2CNC(=O)NC2)cc1O[C@H]1C[C@@H]2CC[C@H]1C2` [CP80633], the IC50 in series [1] was 1.9 µM; in series [2], more than 100 µM; in series [4] (setting [22]), 1.9 µM; in [5], more than 100 µM; in series [7], more than 100 µM; in series [8] it was more than 100 µM. For the same molecule, in [1], the PDE4 isozyme selectivity result is on record as “no significant PDE4 isozyme selectivity”. Moreover, in series [3], the “hydrolysis of cAMP in blood cells” value is given as “inhibits hydrolysis of cAMP”. In addition, in series [6], the “anti-inflammatory and bronchodilatory effects” value was “anti-inflammatory and bronchodilatory effects in vivo”.

In the case of `CCCn1c(=O)c(C)cn2nc(N)nc12` [ICI63197], the IC50 in series [9] and in series [4] (setting [22]) was 0.035 µM throughout.

For `CCOC(=O)c1c(C)nn(-c2cccc([N+](=O)[O-])c2)c1C` [Phosphodiesterase 4 Inhibitor], the IC50 in series [10] is more than 30 µM; in series [11] it was more than 30 µM; in [12], more than 30 µM; in series [4] (setting [22]) it was 0.033 µM; in series [13], more than 30 µM; in series [14], more than 30 µM. For the same molecule, the IC50 in [15] is 6.9 µM; in series [16], more than 30 µM; in [17], more than 30 µM; in series [18], more than 30 µM.

Turning to `COc1ccc(C2CNC(=O)C2)cc1OC1CCCC1` (stereo not drawn) [Rolipram], the IC50 in [4] (setting [22]) was 1 µM; in series [4] (in vitro, read-out: in vitro IC50 for 50% inhibition of PDE4), approximately 2 µM; in series [4] (read-out: IC50, PDE4), 2 µM; in series [19] (end-point growth, concluded from 50% inhibition at 10 μM, read-out: IC50 of cell proliferation inhibition), approximately 10 µM; in series [20] (real-time growth, concluded from 50% inhibition at 10 uM, read-out: IC50 of cell proliferation inhibition), approximately 10 µM. Besides, the inhibition at 10 µM in [19] (10 μM, 48 hours, without androgens, p<0.01, read-out: level of average inhibition of cell proliferation) is approximately 50%; in series [20] (10 uM, 12-60 hours, without androgens, p<0.01, read-out: level of average inhibition of cell proliferation) it was approximately 50%.

Take `CCc1ccc2c(-c3cccc(Cl)c3)nc(=O)n(CC)c2n1` [YM976]: the IC50 in series [4] (read-out: IC50, PDE4) is 0.0022 µM. Besides, the emetogenic activity entry in [21] was “low emetogenic activity”.
